This is an account of results in paper PMC11154920 (ACS Omega, 2024).

Series [1] in a line: Stability of DEM and DEX in rat plasma. Type of series: physicochemical.
Series [2] deals with cytochrome P450 3A4 (CYP3A4). The settings on record: cited from earlier work.
Series [3] has as its system Cytochrome P450 2D6 (CYP2D6). As to conditions: cited from earlier work.
For series [4] the following is noted: cited from earlier work.
The subject of a further series is CYP3A4. As to conditions: in vitro; cited from earlier work.
Setting [5] is: autosampler stability (64 h and 3 min), HQC.
Setting [6] is: autosampler stability (64 h and 3 min), LQC.
Setting [7] is: benchtop stability (19 h and 28 min), HQC, rat plasma.
[8] abbreviates: benchtop stability (19 h and 28 min), LQC, rat plasma.
[9] abbreviates: freeze thaw stability (five cycles), HQC.
Setting [10] is: freeze thaw stability (five cycles), HQC: nominal DEM 302.52, DEX 156.76 ng/mL.
Where [11] appears, read: freeze thaw stability (five cycles), LQC.
[12] abbreviates: freeze thaw stability (five cycles), LQC: nominal DEM 0.58, DEX 0.30 ng/mL.
Where [13] appears, read: long-term stability (49 days), HQC.
[14] abbreviates: long-term stability (49 days), LQC.
Where [15] appears, read: long-term stability (49 days), −70 °C, HQC: nominal DEM 302.52, DEX 156.76 ng/mL.
[16] abbreviates: long-term stability (49 days), −70 °C, LQC: nominal DEM 0.58, DEX 0.30 ng/mL.
Setting [17] is: processed sample stability (28 h and 21 min), HQC.
[18] abbreviates: processed sample stability (28 h and 21 min), LQC.
[19] abbreviates: wet extract stability (42 h and 12 min), HQC.
The mark [20] stands for this setting: wet extract stability (42 h and 12 min), LQC.
The mark [21] stands for this setting: wet extract stability (42 h and 12 min), LQC: nominal DEM 0.58, DEX 0.30 ng/mL.

As for `COc1ccc2c(c1)[C@]13CCCC[C@@H]1[C@H](C2)N(C)CC3` [DEM, Dextromethorphan], the “% difference” value is on record as 2.32% in series [1] (setting [5]); 3.51% in series [1] (setting [6]); “–0.36%” in series [1] (setting [7]); 5.29% in series [1] (setting [8]); “–2.53%” in series [1] (setting [9]); 1.72% in series [1] (setting [11]). The “% difference” value is reported as “–0.54%” in series [1] (setting [13]); 3.51% in series [1] (setting [14]); 2.35% in series [1] (setting [17]); “–0.06%” in series [1] (setting [18]); “–0.83%” in series [1] (setting [19]); 8.86% in series [1] (setting [20]). Also, the calculated conc. in series [1] (setting [10]) is reported as 293.62 ± 16.24 ng/mL; in series [1] (setting [12]), 0.57 ± 0.03 ng/mL; in series [1] (setting [15]), 299.62 ± 9.41 ng/mL; in series [1] (setting [16]) it was 0.58 ± 0.03 ng/mL; in series [1] (setting [21]), 0.61 ± 0.05 ng/mL. Also, the “share of metabolism of DEM to 3-methoxymorphinan by CYP3A4” value in series [2] is recorded as 90%. In addition, the “share of metabolism of DEM to DEX by CYP2D6” value in series [3] is on record as 80%.
As to `CN1CC[C@@]23CCCC[C@@H]2[C@@H]1Cc1ccc(O)cc13` [DEX, dextrorphan], the “% difference” value was “–3.41%” in series [1] (setting [5]); “–3.45%” in series [1] (setting [6]); “–0.70%” in series [1] (setting [7]); 0.00% in series [1] (setting [8]); 0.66% in series [1] (setting [9]); 3.45% in series [1] (setting [11]). The “% difference” value is given as 0.32% in series [1] (setting [13]); 3.45% in series [1] (setting [14]); “–1.99%” in series [1] (setting [17]); 3.45% in series [1] (setting [18]); “–0.69%” in series [1] (setting [19]); 6.90% in series [1] (setting [20]). The calculated conc. is listed as 156.02 ± 1.22 ng/mL in series [1] (setting [10]); 0.30 ± 0.02 ng/mL in series [1] (setting [12]); 155.49 ± 7.51 ng/mL in series [1] (setting [15]); 0.30 ± 0.02 ng/mL in series [1] (setting [16]); 0.31 ± 0.02 ng/mL in series [1] (setting [21]). In addition, the fraction rapidly glucuronidated in series [4] was 98%.
As for `COc1cc2c(cc1O)CC[n+]1cc3c(OC)c(OC)ccc3cc1-2` [M38, jatrorrhizine], the “inhibition of CYP3A4” value in the series on CYP3A4 is listed as “reported to inhibit CYP3A4”.
